# Laboratory results published in ChEMBL document CHEMBL3045777, “Response of selected horseweed (Conyza canadensis (L.) Cronq.) populations to glyphosate” (2004).
# Tests used:
# Erigeron canadensis [1] = experiment: Herbicidal activity against compound-resistant Conyza canadensis (horseweed) isolate 2 under greenhouse condition at 0.45 kg ae/ha measured 14 days post treatment relative to control; assay type: functional
# Erigeron canadensis [2] = experiment: Herbicidal activity against compound-resistant Conyza canadensis (horseweed) isolate 2 under greenhouse condition at 9 kg ae/ha measured 7 days post treatment relative to control; assay type: functional
# Erigeron canadensis [3] = experiment: Herbicidal activity against compound-resistant Conyza canadensis (horseweed) isolate 2 under greenhouse condition at 0.45 kg ae/ha measured 7 days post treatment relative to control; assay type: functional
# Erigeron canadensis [4] = experiment: Herbicidal activity against Conyza canadensis (horseweed) under greenhouse condition assessed as decrease in fresh weight at 0.05 kg ae/ha measured 21 days post treatment relative to untreated control; assay type: functional
# Erigeron canadensis [5] = experiment: Herbicidal activity against Conyza canadensis (horseweed) under greenhouse condition at 0.05 kg ae/ha measured 21 days post treatment relative to control; assay type: functional
# Erigeron canadensis [6] = experiment: Herbicidal activity against compound-resistant Conyza canadensis (horseweed) isolate 2 under greenhouse condition at 9 kg ae/ha measured 21 days post treatment relative to control; assay type: functional
# Erigeron canadensis [7] = experiment: Herbicidal activity against compound-resistant Conyza canadensis (horseweed) isolate 2 under greenhouse condition at 3.36 kg ae/ha measured 21 days post treatment relative to control; assay type: functional
# Erigeron canadensis [8] = experiment: Herbicidal activity against compound-resistant Conyza canadensis (horseweed) isolate 2 under greenhouse condition at 1.68 kg ae/ha measured 21 days post treatment relative to control; assay type: functional
# Erigeron canadensis [9] = experiment: Herbicidal activity against compound-resistant Conyza canadensis (horseweed) isolate 2 under greenhouse condition at 3.36 kg ae/ha measured 14 days post treatment relative to control; assay type: functional
# Erigeron canadensis [10] = experiment: Herbicidal activity against compound-resistant Conyza canadensis (horseweed) isolate 2 under greenhouse condition at 2.52 kg ae/ha measured 14 days post treatment relative to control; assay type: functional
# Erigeron canadensis [11] = experiment: Herbicidal activity against compound-sensitive Conyza canadensis (horseweed) under greenhouse condition at 0.45 kg ae/ha measured 14 days post treatment relative to control; assay type: functional
# Erigeron canadensis [12] = experiment: Herbicidal activity against compound-sensitive Conyza canadensis (horseweed) under greenhouse condition at 1.68 kg ae/ha measured 7 days post treatment relative to control; assay type: functional
# Erigeron canadensis [13] = experiment: Herbicidal activity against compound-resistant Conyza canadensis (horseweed) isolate 1 under greenhouse condition at 9 kg ae/ha measured 21 days post treatment relative to control; assay type: functional
# Erigeron canadensis [14] = experiment: Herbicidal activity against compound-resistant Conyza canadensis (horseweed) isolate 1 under greenhouse condition at 1.25 kg ae/ha measured 21 days post treatment relative to control; assay type: functional
# Erigeron canadensis [15] = experiment: Herbicidal activity against compound-resistant Conyza canadensis (horseweed) isolate 1 under greenhouse condition at 0.45 kg ae/ha measured 21 days post treatment relative to control; assay type: functional
# Erigeron canadensis [16] = experiment: Herbicidal activity against compound-sensitive Conyza canadensis (horseweed) under greenhouse condition at 0.45 kg ae/ha measured 21 days post treatment relative to control; assay type: functional
# Erigeron canadensis [17] = experiment: Herbicidal activity against compound-resistant Conyza canadensis (horseweed) isolate 1 under greenhouse condition at 1.25 kg ae/ha measured 14 days post treatment relative to control; assay type: functional
# Erigeron canadensis [18] = experiment: Herbicidal activity against compound-resistant Conyza canadensis (horseweed) isolate 1 under greenhouse condition at 0.45 kg ae/ha measured 7 days post treatment relative to control; assay type: functional
# Erigeron canadensis [19] = experiment: Herbicidal activity against compound-sensitive Conyza canadensis (horseweed) under greenhouse condition at 9 kg ae/ha measured 21 days post treatment relative to control; assay type: functional
# Erigeron canadensis [20] = experiment: Herbicidal activity against compound-sensitive Conyza canadensis (horseweed) under greenhouse condition at 3.36 kg ae/ha measured 21 days post treatment relative to control; assay type: functional
# Erigeron canadensis [21] = experiment: Herbicidal activity against compound-sensitive Conyza canadensis (horseweed) under greenhouse condition at 0.84 kg ae/ha measured 21 days post treatment relative to control; assay type: functional
# Erigeron canadensis [22] = experiment: Herbicidal activity against compound-resistant Conyza canadensis (horseweed) isolate 1 under greenhouse condition at 1.68 kg ae/ha measured 14 days post treatment relative to control; assay type: functional
# Erigeron canadensis [23] = experiment: Herbicidal activity against compound-sensitive Conyza canadensis (horseweed) under greenhouse condition assessed as fresh weight at 3.36 kg ae/ha measured 21 days post treatment relative to untreated control
# Erigeron canadensis [24] = experiment: Herbicidal activity against compound-sensitive Conyza canadensis (horseweed) under greenhouse condition assessed as fresh weight at 1.25 kg ae/ha measured 21 days post treatment relative to untreated control
# Erigeron canadensis [25] = experiment: Herbicidal activity against compound-sensitive Conyza canadensis (horseweed) under greenhouse condition assessed as fresh weight at 0.45 kg ae/ha measured 21 days post treatment relative to untreated control
# Erigeron canadensis [26] = experiment: Herbicidal activity against compound-resistant Conyza canadensis (horseweed) isolate 1 under greenhouse condition assessed as fresh weight at 9 kg ae/ha measured 21 days post treatment relative to untreated control
# Erigeron canadensis [27] = experiment: Herbicidal activity against compound-resistant Conyza canadensis (horseweed) isolate 2 under greenhouse condition assessed as fresh weight at 9 kg ae/ha measured 21 days post treatment relative to untreated control
# Erigeron canadensis [28] = experiment: Herbicidal activity against compound-resistant Conyza canadensis (horseweed) isolate 2 under greenhouse condition assessed as fresh weight at 3.36 kg ae/ha measured 21 days post treatment relative to untreated control
# Erigeron canadensis [29] = experiment: Herbicidal activity against compound-resistant Conyza canadensis (horseweed) isolate 1 under greenhouse condition assessed as fresh weight at 3.36 kg ae/ha measured 21 days post treatment relative to untreated control
# Erigeron canadensis [30] = experiment: Herbicidal activity against compound-resistant Conyza canadensis (horseweed) isolate 1 under greenhouse condition assessed as fresh weight at 2.52 kg ae/ha measured 21 days post treatment relative to untreated control
# Erigeron canadensis [31] = experiment: Herbicidal activity against compound-resistant Conyza canadensis (horseweed) isolate 1 under greenhouse condition assessed as fresh weight at 1.68 kg ae/ha measured 21 days post treatment relative to untreated control
# Erigeron canadensis [32] = experiment: Herbicidal activity against compound-resistant Conyza canadensis (horseweed) isolate 2 under greenhouse condition assessed as fresh weight at 0.45 kg ae/ha measured 21 days post treatment relative to untreated control
# Erigeron canadensis [33] = experiment: Herbicidal activity against compound-resistant Conyza canadensis (horseweed) isolate 1 under greenhouse condition assessed as fresh weight at 1.25 kg ae/ha measured 21 days post treatment relative to untreated control
# Erigeron canadensis [34] = experiment: Herbicidal activity against compound-resistant Conyza canadensis (horseweed) isolate 1 under greenhouse condition assessed as fresh weight at 0.84 kg ae/ha measured 21 days post treatment relative to untreated control
# Erigeron canadensis [35] = experiment: Herbicidal activity against compound-resistant Conyza canadensis (horseweed) isolate 1 under greenhouse condition assessed as fresh weight at 0.45 kg ae/ha measured 21 days post treatment relative to untreated control
smiles,measurement,setting,value
O=C(O)CNCP(=O)(O)O [GLYPHOSATE],Activity,Erigeron canadensis [1],13%
same,Activity,Erigeron canadensis [2],73%
same,Activity,Erigeron canadensis [3],13%
same,Activity,Erigeron canadensis [4],4 g
same,Activity,Erigeron canadensis [5],26%
same,Activity,Erigeron canadensis [6],89%
same,Activity,Erigeron canadensis [7],75%
same,Activity,Erigeron canadensis [8],50%
same,Activity,Erigeron canadensis [9],69%
same,Activity,Erigeron canadensis [10],50%
same,Activity,Erigeron canadensis [11],40%
same,Activity,Erigeron canadensis [12],63%
same,Activity,Erigeron canadensis [13],80%
same,Activity,Erigeron canadensis [14],30%
same,Activity,Erigeron canadensis [15],11%
same,Activity,Erigeron canadensis [16],74%
same,Activity,Erigeron canadensis [17],18%
same,Activity,Erigeron canadensis [18],10%
same,Activity,Erigeron canadensis [19],99%
same,Activity,Erigeron canadensis [20],99%
same,Activity,Erigeron canadensis [21],88%
same,Activity,Erigeron canadensis [22],40%
same,"level, % of control",Erigeron canadensis [23],6%
same,"level, % of control",Erigeron canadensis [24],19%
same,"level, % of control",Erigeron canadensis [25],30%
same,"level, % of control",Erigeron canadensis [26],9%
same,"level, % of control",Erigeron canadensis [27],12%
same,"level, % of control",Erigeron canadensis [28],18%
same,"level, % of control",Erigeron canadensis [29],7%
same,"level, % of control",Erigeron canadensis [30],25%
same,"level, % of control",Erigeron canadensis [31],36%
same,"level, % of control",Erigeron canadensis [32],94%
same,"level, % of control",Erigeron canadensis [33],88%
same,"level, % of control",Erigeron canadensis [34],94%
same,"level, % of control",Erigeron canadensis [35],99%
